Results taken from US20180133248A1, “T[…] AGENT AND TREATMENT” (priority 2014, published 2018).

Tested on: normal bank blood
Experiment: In vitro pO2 and hemoglobin saturation of bank blood after oxygen or ozone/oxygen treatment
Conditions: 5 minutes after gas administration
Description: Ozone/oxygen was obtained from a pure (medical grade) oxygen by means of a medical ozone generator (Ozomed, a device manufactured in N.C.S.R., Havana, Cuba), at a concentration of 50 mg ozone/L oxygen (ca. 3.7%).
The ability of ozone/oxygen to in vitro raise pO2 of normal bank blood was compared to that of pure medical oxygen. To each one often paired (5+5) blood samples (5 mL each) contained in closed 10 ml vials, 2.5 mL of pure oxygen or ozone/oxygen mixture respectively were carefully bubbled through. Gasometric analyses were performed in test samples 5 minutes after gas administration and also in control untreated samples.

O=O [O2, oxygen]
PO2 (5 mL blood, 2.5 mL gas bubbled through, n = 5, control 41 ± 1): 73 ± 2 | PO2 rise (%) (above control) (n = 5): 78% | HB saturation (n = 5, control 60 ± 1): 86 ± 2
